From patent publication US6710075B2, “Therapeutic compounds and methods” (The Government of the State of Sarawak, Malaysia, priority 2000, dated 2004)
Where two headings read alike, the source gives them in different places.

Legend:
[1] = tested on: Intercellular Adhesion Molecule-1 (ICAM-1); test: IL-1-induced ICAM-1 surface expression by A549 cells (Delfia); type: cell-based, human; conditions: 24 hours, read-out: IC50 ICAM-1 Production
Text: (a) Compounds A and B were identified from a bark sample of Aglaia leptantha through their ability to inhibit production of Tumour Necrosis Factor-α (TNF-α) by THP-1 human promonocytic leukemia cells (Tsuchiya, et al, Int. J. Cancer, 1980, 26(2):171-6) activated with lipopolysaccharide (LPS). Table 4 summarises the results comparing the activity of Compounds A and B for inhibition of TNF-α production to their effects on general cell metabolism measured using WST-1 reduction, DNA synthesis and protein synthesis assays for THP-1 cells. […] For comparison, the effects of Compounds A and B on A549 lung epithelial carcinoma cells (Leiber et al, Int. J. Cancer, 1976, 17(1)-62-70) were also measured and the data is also included in Table 4.

A549 cells [2] = test: Acute general protein biosynthesis inhibition, [14C] leucine incorporation, A549 cells; type: cell-based, human; conditions: 1 hour pretreatment + 2 hours label, read-out: IC50 Protein synthesis
[3] = tested on: panel of cell lines derived from a variety of human tumour types; test: Cytostatic activity against a panel of human tumour cell lines (summary); type: cell-based; conditions: 72 h, range over the cell line panel, 3 days, read-out: GI50 values in nearly all cell lines tested
Method: (b) Compound A was assessed for cytotoxic and cytostatic activity against a panel of cell lines derived from a variety of human tumour types in addition to THP-1 and A549 cells (Table 5). These included K562 leukemic cells (Lozzio and Lozzio, 1975, Blood 45:321-34), PC3 prostate tumour cells (Kaighn et al., 1979, Invest. Urol. 17:16-23) and SF268 glioblastoma cells (Westphal et al, 1985, Biochem. Biophys. Res. Commun., 132:284-9). […] However, the cytotoxic potency of Compound A increased dramatically after 6 days of culture for the K562, A549 and SF268 cells.

A549 cells [4] = test: Proliferation of A549 cells, haemocytometer counting of trypan blue stained cells; type: cell-based, human; conditions: for cell death: after 9 days
Method: A549 cells were seeded at ˜10,000 cells/well and cultured in the presence of the indicted concentrations of Compound A or paclitaxel. Cells were collected and the viable cell number determined by haemocytometer counting of trypan blue stained cells at the various times. The results are the averages ±SEM of triplicate cultures.
The cytostatic effect of Compound A on the proliferation of A549 cells was confirmed by directly counting the number of cells at intervals over a nine day period (FIG. 3). When compared to untreated cells 10 nM Compound A prevented the increase in cell number by more than 95% with fewer than 10% dead cells observed at this time (measured by trypan blue exclusion). Thus, under these conditions the decreased cell number can not simply be accounted for by increased cell death. […] At the higher concentrations of 50 nM and 250 nM Compound A had cytotoxic effects and increased cell death to 86% and 100% respectively after 9 days and accounts for the decline in cell number to levels below the original staring number at this time. At the non-cytotoxic concentration of 10 nM, Compound A has a rapid and potent cytostatic effect on A549 cells.

A549 cells [5] = test: Effect on camptothecin- and paclitaxel-induced cytotoxicity, YOYO-1 exclusion; type: cell-based, human; conditions: A549, 10 nM Compound A, 3 days, drugs at up to 2000-fold excess
Method: A549 cells in 96 well plates were cultured for 3 days in the presence or absence of 10 nM Compound A together with the indicated concentrations of (A) camptothecin or (B) paclitaxel. Loss of membrane integrity was then assessed by the addition of the fluorescent DNA-binding dye YOYO-1 and the increased fluorescence accompanying cell death measured using a fluorescent plate reader.
To further examine the cell cycle effects of Compound A a cytostatic concentration of this compound was combined together with other anti-cancer agents known to act at specific points in the cell cycle to see if Compound A could perturb their cell cycle-dependent effects. Cell viability was assayed after 3 days by measuring exclusion of the fluorescent DNA-binding dye YOYO-1. (Becker et al., Anal Biochem, 1994, 221(1):78-84). A549 cells were treated with 10 nM non-cytotoxic dose of Compound A in the presence of increasing concentrations of camptothecin and paclitaxel. Camptothecin is an inhibitor of DNA topoisomerase 1, an enzyme required for DNA replication, and results in pertubation of the S phase of the cell cycle with subsequent cell death due to activation of an S phase checkpoint (Darzynkiewicz et al., Ann N Y Acad Sci, 1996, 803:93-100). […]

A549 cells [6] = test: Relative cell size by forward light scatter (flow cytometry); type: cell-based, human; conditions: for % increase in mean cell volume: six days
Method: It is well known that cell proliferation and cell growth reflected as increased mass of individual cells are biochemically separable processes (Pardee, Science, 1989, 246:603-8). Although at certain concentrations Compound A can inhibit cell proliferation without overt cytotoxicity it was also evaluated whether Compound A also affected cell growth. For these experiments A549 cells were treated with various non-cytotoxic doses of Compound A up to 10 nM and the relative cell size determined after 6 days of culture by measuring forward light scatter using a flow cytometer. […] This occurred only at concentrations which are cytostatic for this cell type.

[7] = Body weight in the mouse xenograft tumour model; type: in vivo
Method: The ability of Compound A to inhibit growth of human tumour cells in vivo was assessed using male athymic mice injected subcutaneously in the dorsal flank region with 2×10^6 PC3 human prostate tumour cells. Compound A administration (3 mg/kg) by intraperitoneal injection commenced after eight days once the PC3 tumour was palpable and continued three times a week until 29 days after the initial inoculation of the tumour cells. At this time all mice were killed and tumours excised and weighed.

## COC(=O)[C@H]1[C@@H](O)[C@@]2(O)c3c(OC)cc(OC4OC(C(O)CO)COC4OC)cc3O[C@@]2(c2ccc(OC)cc2)[C@@H]1c1ccccc1 (single isomer, unassigned) [Compound A]
[1]
  IC50: 2000 nM
A549 cells [2]; A549 cells
  IC50: 32 nM
A549 cells [2]; Homo sapiens, A549, A549 cells
  IC50: ~30 nM
[3]
  GI50: 1 to 7 nM
A549 cells [4]; A549, 10 nM
  dead cells (trypan blue exclusion): < 10%
A549 cells [4]; A549, 10 nM, nine day period
  prevention of the increase in cell number compared to untreated cells: more than 95%
A549 cells [4]; A549, 50 nM
  cell death: 86%
A549 cells [4]; A549, 250 nM
  cell death: 100%
A549 cells [5]
  effect on cytotoxicity of camptothecin and paclitaxel: significantly reduced the cytotoxic effects of both camptothecin and paclitaxel
A549 cells [6]; A549, 2.5 nM
  % increase in mean cell volume: 10.4%
A549 cells [6]; A549, 5.0 nM
  % increase in mean cell volume: 10.7%
A549 cells [6]; A549, 10.0 nM
  % increase in mean cell volume: 22.4%
A549 cells [6]; A549, non-cytotoxic doses up to 10 nM, 6 days
  increase in the mean forward scatter: over 20%
[7]; 3 mg/kg intraperitoneal three times a week, vs control
  body weight: unaffected
[7]; over the duration of the experiment, similar in control group
  decrease in mean body weight: ~12%
